Assays:
[1] = tested on: Clostridium ljungdahlii; test: Syngas fermentation in stirred tank bioreactor, effect of vitamin feed rates on specific ethanol productivity; format: cell-based; conditions: Experiment 4; vitamin B5 feed held constant below about 30 ug/g of cells produced, vitamin B1 and B7 feeds increased
Source text: A synthesis gas containing CO, CO2 and H2 was continuously introduced into a stirred tank bioreactor containing Clostridium ljungdahlii (Experiments 1-4) or Clostridium authoethanogenum (Experiment 5), along with a liquid medium containing trace metals and salts as described herein. Vitamins were provided using dedicated feed lines. A New Brunswick Bioflow reactor containing the fermentation medium was started with actively growing Clostridium ljungdahlii (Experiments 1-5) or with Clostridium authoethanogenum (Experiment 6). The rate of agitation of the reactor was set to 800 rpm at the start of the experiment and this agitation rate was maintained throughout the experiment. Feed gas flow to the reactor was increased based on the H2 and CO uptake of the culture. Temperature in the bioreactor was maintained at about 38° C. throughout the experiment. Samples of gas feed into the bioreactor and off-gas from the bioreactor and fermentation broth in the bioreactor were taken at intervals, for example feed gas, off-gas and fermentation broth were sampled about daily, once two hours and once four hours respectively. Above samples were analyzed for consumption or production of various gas components, broth acetic acid concentration, broth ethanol concentration and the optical density (cell density) of the culture. […]

[2] = tested on: Clostridium authoethanogenum; test: as above; format: cell-based; conditions: Experiment 5
Source text: A synthesis gas containing CO, CO2 and H2 was continuously introduced into a stirred tank bioreactor containing Clostridium ljungdahlii (Experiments 1-4) or Clostridium authoethanogenum (Experiment 5), along with a liquid medium containing trace metals and salts as described herein. Vitamins were provided using dedicated feed lines. A New Brunswick Bioflow reactor containing the fermentation medium was started with actively growing Clostridium ljungdahlii (Experiments 1-5) or with Clostridium authoethanogenum (Experiment 6). The rate of agitation of the reactor was set to 800 rpm at the start of the experiment and this agitation rate was maintained throughout the experiment. Feed gas flow to the reactor was increased based on the H2 and CO uptake of the culture. Temperature in the bioreactor was maintained at about 38° C. throughout the experiment. Samples of gas feed into the bioreactor and off-gas from the bioreactor and fermentation broth in the bioreactor were taken at intervals, for example feed gas, off-gas and fermentation broth were sampled about daily, once two hours and once four hours respectively. Above samples were analyzed for consumption or production of various gas components, broth acetic acid concentration, broth ethanol concentration and the optical density (cell density) of the culture. The unaroused volume of the reactor was maintained between 3000 to 3250 ml throughout the experiment. Further, the gas flow to the reactor was maintained at required gas flow rates by using a mass flow controller. The feed […] composition was 23% H2, 35% CO, 29% CO2 and 13% N2. In the following reactor runs, vitamins biotin, thiamine and pantothenate were feed to the reactor using a dedicated stream. Steady state conditions were maintained for a period of time greater than 5 times the cell retention time. Cell mass was essentially replaced 5 times before data collection phase started. After data set was collected, vitamin feed rate was adjusted, adjustment phase was repeated, and next data set was collected. Adjustment phase refers to an amount of time necessary for the culture to equilibrate to a change. In this experiment culture was allowed at least a 3-day adjustment phase. A cell recycle system (CRS) was attached to the reactor before the start of the experiment. During the experiment, medium feed rate was 3.0 to 6.0 ml/min, and through the CRS, 0-5 ml/min permeate was drawn out from the reactor. The following tables describe the vitamin feed rates and specific ethanol productivity (SEP). Experiment 5: Fermentation with Clostridium authoethanogenum with Biotin (B7) and Thiamine (B1) feeds held at lower base levels with increasing Pantothenate (B5) Feeds.

## Cc1ncc(C[n+]2csc(CCO)c2C)c(N)n1 [vitamin B1, thiamine]
[1]
  effect of increasing feed rate on specific ethanol productivity: did not increase specific ethanol productivity

## O=C(O)CCCC[C@@H]1SC[C@@H]2NC(=O)N[C@@H]21 [vitamin B7, biotin]
[1]
  effect of increasing feed rate on specific ethanol productivity: did not increase specific ethanol productivity

## CC(C)(CO)[C@@H](O)C(=O)NCCC(=O)O [Pantothenate (B5), pantothenate]
[2]; feeds pantothenate 48.47, biotin 29.54, thiamine 23.10 μg/g cells produced
  SEP (specific ethanol productivity): 8.08 g//day/g cells
[2]; feeds pantothenate 58.08, biotin 26.65, thiamine 20.84 μg/g cells produced
  SEP (specific ethanol productivity): 8.24 g//day/g cells
[2]; feeds pantothenate 62.90, biotin 23.04, thiamine 18.01 μg/g cells produced
  SEP (specific ethanol productivity): 8.51 g//day/g cells
[2]; feeds pantothenate 68.78, biotin 25.19, thiamine 19.70 μg/g cells produced
  SEP (specific ethanol productivity): 9.39 g//day/g cells
[2]; feeds pantothenate 70.67, biotin 21.62, thiamine 16.91 μg/g cells produced
  SEP (specific ethanol productivity): 9.70 g//day/g cells
[2]; feeds pantothenate 81.90, biotin 18.79, thiamine 14.69 μg/g cells produced
  SEP (specific ethanol productivity): 9.98 g//day/g cells
[2]; vitamin B5 feed from about 48 to about 82 ug/g of cells produced, vitamin B1 and B7 feeds under 30, further under 20 ug/g of cells produced
  specific ethanol productivity increase: about 24%
